In US4898936A, “2-deoxyuridines and riboside precursors” (priority 1985, dated 1990):
Several values for one entry are separate records, joined by “and”; a condition that tells them apart may be missing. Equal values may be shown once.

Tests used:
[1] = test system: Sarcoma 180; format: in vivo, mouse (male ICR/JCL-strain); settings: toxicity value (B) / antitumor activity value (A); oral, mice
Procedure: (c) Calculation of therapeutic index
By the use of the antitumor activity value (hereinafter referred to as A) and the toxicity value (hereinafter referred to as B) of each compound, which were obtained in the above items (a) and (b), respectively, therapeutic index (hereinafer referred to as C) was calculated in accordance with the following equation: […]
Pharmacological tests-(Continued) [formula]

[2] = cited from earlier work; for Toxicity value (B): Administration amount of test compound at which weight increase of test animal is inhibited by 50% compared with that of control group: oral, once a day for 7 consecutive days, mice
[3] = test system: Sarcoma 180; settings: cited from earlier work; for Antitumor activity value (A): Administration amount of test compound, at which tumor enhancement is inhibited by 50% compared with that of control group: oral, once a day for 7 consecutive days, tumor weight on tenth day, Sarcoma 180, mice, 14400 min
[4] = test system: Sarcoma 180; assay: Antitumor activity in mice against Sarcoma 180 (effective dose); format: in vivo; settings: Sarcoma 180, mice; for ED50: Mus musculus, po, effective dose, administered orally
Procedure: (§1) The effective dose and the lethal dose has been determined as follows:
^+ Test animals alive at indicated dose. The dosage is administered

[5] = test system: Sarcoma 180; assay: Comparison of activities of antitumor agents on Sarcoma 180 in mice (50% tumor regression); format: in vivo; settings: Mus musculus
Source text: In comparison with the activities of other antitumor agents on Sarcoma 180 in mice, the following results were obtained: […]

[6] = format: in vivo; settings: lethal dose, administered orally; + Test animals alive at indicated dose
Procedure: as §1
The dosage is administered

[7] = test system: Sarcoma 180; settings: from Table 1; cited from earlier work
[8] = Hygroscopicity; format: physicochemical; settings: beta-anomer

| SMILES | Therapeutic Index (C) = (B)/(A) [1] | toxicity compared with F3 TdR and FudR (in words) ([2]; from Table 1) | Toxicity value (B): Administration amount of test compound at which weight increase of test animal is inhibited by 50% compared with that of control group [2] | antitumor activity compared with F3 TdR and FudR (in words) ([3]; from Table 1) | Antitumor activity value (A): Administration amount of test compound, at which tumor enhancement is inhibited by 50% compared with that of control group [3] | ED50 [4] [mg/kg] | antitumor activity in mice against Sarcoma 180 (in words) [4] | ED50 [5] [mg/kg] | LD10 [6] [mg/kg] | usefulness when compared in therapeutic index (in words) [7] | hygroscopicity [8] |
| --- | --- | --- | --- | --- | --- | --- | --- | --- | --- | --- | --- |
| O=c1[nH]c(=O)n([C@H]2C[C@H](OCc3ccccc3)[C@@H](CO)O2)cc1C(F)(F)F [3'-O-Benzyl-2'-Deoxy-5-Trifluoromethyluridine] | 1.88 | equal or superior to F3 TdR and FudR in toxicity | 32 mg/kg/day | far superior to them in antitumor activity | 17 mg/kg/day | 14 | show antitumor activity in mice against Sarcoma 180 | 14 | 80 | especially useful |  |
| O=c1[nH]c(=O)n([C@H]2C[C@H](OCc3ccccc3)[C@@H](CO)O2)cc1F [3'-O-Benzyl-2'-deoxy-5-fluorouridine, 3'-O-Benzyl-2'-Deoxy-5-Fluorouridine] | 2.06 |  | 35 mg/kg/day |  | 17 mg/kg/day |  | show antitumor activity in mice against Sarcoma 180 |  |  | especially useful | not hygroscopic |
| Nc1nc(=O)n([C@H]2C[C@H](O)[C@@H](CO)O2)cc1C(F)(F)F [CF3 dC, 5-Trifluoromethyl-2deoxycytidine] |  |  |  |  |  |  |  | 60 to 80 |  |  |  |
| O=c1[nH]c(=O)n([C@H]2C[C@H](O)[C@@H](CO)O2)cc1C(F)(F)F [F3 TdR, 2'-deoxy-5-trifluoromethyluridine, reference compound] |  |  | 49 mg/kg/day and 40 mg/kg/day |  | 68 mg/kg/day and 58 mg/kg/day | 75 |  | 60 to 80 |  |  |  |
| O=c1[nH]c(=O)n(C2CCCO2)cc1F (stereo not shown) [Ftorafur] |  |  |  |  |  |  |  | 120 |  |  |  |
| O=c1[nH]c(=O)n([C@H]2C[C@H](O)[C@@H](CO)O2)cc1F [FudR, 2'-deoxy-5-fluorouridine, reference compound] | 0.76 |  | 71 mg/kg/day |  | 93 mg/kg/day |  |  |  |  |  |  |
